Measurements published in article PMC11976443 (2025).

Tested on: 5' FAM-CoA-seq10 aptamer (DNA, aptamer) ATGCAGTCGGCGTCGGACAGGCAAAGGGGAGAGTGATTATAATCACTCGGGACATGGGATCTGTCCGACGATGTAACGCTTCAC
Assay: fluorescence strand displacement
Conditions: apparent; 50 nM aptamer, 1:5 3'-BHQ1 capture strand CTGTCCGACGCCGAC displaced

- Kd: 1133 µM
Compound: CC(C)(COP(=O)(O)OP(=O)(O)OC[C@H]1O[C@@H](n2cnc3c(N)ncnc32)[C@H](O)[C@@H]1OP(=O)(O)O)[C@@H](O)C(=O)NCCC(=O)NCCS
